Paper PMC10838953

Columns and labels:
AKT (S129) = conditions: 786-O cells; 48 h
ERK2 = ERK2 (Homo sapiens, UniProt P28482); assay: biochemical; conditions: read-out: %Ctrl @ 2000nM
PLK3 = PLK3 (Homo sapiens, UniProt Q9H4B4); assay: biochemical; conditions: read-out: %Ctrl @ 2000nM
[1] = target: ABL1(Q252H)-phosphorylated (Homo sapiens, UniProt P00519, Q252H); assay: biochemical; conditions: read-out: %Ctrl @ 2000nM
DMPK = DMPK (Homo sapiens, UniProt Q09013); assay: biochemical; conditions: read-out: %Ctrl @ 2000nM
MAST1 = MAST1 (Homo sapiens, UniProt Q9Y2H9); assay: biochemical; conditions: read-out: %Ctrl @ 2000nM
ROCK1 = ROCK1 (Homo sapiens, UniProt Q13464); assay: biochemical; conditions: read-out: %Ctrl @ 2000nM
[2] = target: RPS6KA4(Kin.Dom.1-N-terminal) (Homo sapiens, UniProt O75676); assay: biochemical; conditions: read-out: %Ctrl @ 2000nM
CDK11 = CDK11 (Homo sapiens, UniProt Q9BWU1); assay: biochemical; conditions: read-out: %Ctrl @ 2000nM
CSNK2A2 (CK2α′) = CSNK2A2 (CK2α′) (Homo sapiens, UniProt P19784); assay: biochemical
Sequence of CSNK2A2 (CK2α′) (P19784 whole entry): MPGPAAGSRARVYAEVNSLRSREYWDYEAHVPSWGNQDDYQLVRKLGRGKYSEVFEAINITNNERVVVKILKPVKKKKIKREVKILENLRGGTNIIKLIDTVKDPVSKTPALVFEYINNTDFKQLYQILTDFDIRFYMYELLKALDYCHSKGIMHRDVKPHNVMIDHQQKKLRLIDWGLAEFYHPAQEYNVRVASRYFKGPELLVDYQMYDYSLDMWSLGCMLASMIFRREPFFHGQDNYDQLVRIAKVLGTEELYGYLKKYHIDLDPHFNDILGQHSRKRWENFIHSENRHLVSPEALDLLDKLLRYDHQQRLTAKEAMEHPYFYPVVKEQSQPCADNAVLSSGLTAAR

p21 (T145) = conditions: HEK293 cells; 48 h
CSNK1G3 = CSNK1G3 (Homo sapiens, UniProt Q9Y6M4); assay: biochemical; conditions: read-out: %Ctrl @ 2000nM
GRK1 = GRK1 (Homo sapiens, UniProt Q15835); assay: biochemical; conditions: read-out: %Ctrl @ 2000nM
PIP5K1C = PIP5K1C (Homo sapiens, UniProt O60331); assay: biochemical; conditions: read-out: %Ctrl @ 2000nM
CDK9 = CDK9 (Homo sapiens, UniProt P50750); assay: biochemical; conditions: read-out: %Ctrl @ 2000nM
Sequence of CDK9 (P50750 whole entry): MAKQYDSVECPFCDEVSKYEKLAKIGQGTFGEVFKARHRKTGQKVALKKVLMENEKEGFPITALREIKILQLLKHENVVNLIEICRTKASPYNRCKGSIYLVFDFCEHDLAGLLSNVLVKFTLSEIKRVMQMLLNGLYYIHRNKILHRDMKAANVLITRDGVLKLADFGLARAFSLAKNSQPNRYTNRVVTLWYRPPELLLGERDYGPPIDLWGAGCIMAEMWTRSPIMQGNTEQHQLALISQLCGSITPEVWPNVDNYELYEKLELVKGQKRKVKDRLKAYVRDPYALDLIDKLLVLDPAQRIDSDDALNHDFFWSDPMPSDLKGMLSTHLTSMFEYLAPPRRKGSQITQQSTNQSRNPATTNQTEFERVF

SRPK2 = SRPK2 (Homo sapiens, UniProt P78362); assay: biochemical; conditions: read-out: %Ctrl @ 2000nM
Sequence of SRPK2 (P78362 whole entry): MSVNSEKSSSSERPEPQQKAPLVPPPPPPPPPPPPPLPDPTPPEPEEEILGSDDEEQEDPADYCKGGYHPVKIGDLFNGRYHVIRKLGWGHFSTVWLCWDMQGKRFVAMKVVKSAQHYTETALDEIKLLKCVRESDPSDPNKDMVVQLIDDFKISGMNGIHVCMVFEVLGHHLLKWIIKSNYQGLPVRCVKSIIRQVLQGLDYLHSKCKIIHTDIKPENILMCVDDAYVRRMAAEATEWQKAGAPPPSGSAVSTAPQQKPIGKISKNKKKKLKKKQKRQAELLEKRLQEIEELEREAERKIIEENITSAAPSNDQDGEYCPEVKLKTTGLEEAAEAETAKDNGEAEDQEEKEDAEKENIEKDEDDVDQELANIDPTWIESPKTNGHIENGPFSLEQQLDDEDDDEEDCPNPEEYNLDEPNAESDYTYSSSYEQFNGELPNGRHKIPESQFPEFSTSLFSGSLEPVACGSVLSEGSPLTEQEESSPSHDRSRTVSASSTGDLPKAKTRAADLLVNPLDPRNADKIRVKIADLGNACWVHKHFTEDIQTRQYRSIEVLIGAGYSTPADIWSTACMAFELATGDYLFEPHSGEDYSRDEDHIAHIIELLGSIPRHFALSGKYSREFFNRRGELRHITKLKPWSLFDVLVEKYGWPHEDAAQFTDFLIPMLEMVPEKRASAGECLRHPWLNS

DLK = DLK (Homo sapiens, UniProt Q12852); assay: biochemical; conditions: read-out: %Ctrl @ 2000nM
Sequence of DLK (Q12852 whole entry): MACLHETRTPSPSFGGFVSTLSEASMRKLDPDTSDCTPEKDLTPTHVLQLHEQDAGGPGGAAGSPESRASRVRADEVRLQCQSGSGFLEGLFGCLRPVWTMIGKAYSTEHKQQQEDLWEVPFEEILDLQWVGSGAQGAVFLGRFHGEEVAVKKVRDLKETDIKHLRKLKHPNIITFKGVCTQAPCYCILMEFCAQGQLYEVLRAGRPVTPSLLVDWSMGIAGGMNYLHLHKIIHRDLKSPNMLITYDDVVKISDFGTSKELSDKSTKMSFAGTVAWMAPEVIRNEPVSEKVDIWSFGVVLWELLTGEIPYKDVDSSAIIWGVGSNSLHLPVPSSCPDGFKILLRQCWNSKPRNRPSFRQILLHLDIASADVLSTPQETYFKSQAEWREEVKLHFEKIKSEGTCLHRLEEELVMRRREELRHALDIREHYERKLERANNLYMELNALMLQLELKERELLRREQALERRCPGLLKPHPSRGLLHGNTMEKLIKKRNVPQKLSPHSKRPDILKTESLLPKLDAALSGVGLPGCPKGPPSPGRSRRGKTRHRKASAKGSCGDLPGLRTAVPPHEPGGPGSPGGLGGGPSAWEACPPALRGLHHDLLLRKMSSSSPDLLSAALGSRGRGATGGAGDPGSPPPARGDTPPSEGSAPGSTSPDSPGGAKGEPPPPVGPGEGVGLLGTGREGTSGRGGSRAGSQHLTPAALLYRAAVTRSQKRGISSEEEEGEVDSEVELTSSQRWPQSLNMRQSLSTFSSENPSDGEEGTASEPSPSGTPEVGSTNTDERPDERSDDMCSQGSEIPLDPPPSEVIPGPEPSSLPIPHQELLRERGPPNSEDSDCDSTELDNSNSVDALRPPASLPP

HIPK2 = HIPK2 (Homo sapiens, UniProt Q9H2X6); assay: biochemical; conditions: read-out: %Ctrl @ 2000nM
PIK3CB = PIK3CB (Homo sapiens, UniProt P42338); assay: biochemical; conditions: read-out: %Ctrl @ 2000nM
LYN = LYN (Homo sapiens, UniProt P07948); assay: biochemical; conditions: read-out: %Ctrl @ 2000nM
RIOK3 = RIOK3 (Homo sapiens, UniProt O14730); assay: biochemical; conditions: read-out: %Ctrl @ 2000nM
Sequence of RIOK3 (O14730 whole entry): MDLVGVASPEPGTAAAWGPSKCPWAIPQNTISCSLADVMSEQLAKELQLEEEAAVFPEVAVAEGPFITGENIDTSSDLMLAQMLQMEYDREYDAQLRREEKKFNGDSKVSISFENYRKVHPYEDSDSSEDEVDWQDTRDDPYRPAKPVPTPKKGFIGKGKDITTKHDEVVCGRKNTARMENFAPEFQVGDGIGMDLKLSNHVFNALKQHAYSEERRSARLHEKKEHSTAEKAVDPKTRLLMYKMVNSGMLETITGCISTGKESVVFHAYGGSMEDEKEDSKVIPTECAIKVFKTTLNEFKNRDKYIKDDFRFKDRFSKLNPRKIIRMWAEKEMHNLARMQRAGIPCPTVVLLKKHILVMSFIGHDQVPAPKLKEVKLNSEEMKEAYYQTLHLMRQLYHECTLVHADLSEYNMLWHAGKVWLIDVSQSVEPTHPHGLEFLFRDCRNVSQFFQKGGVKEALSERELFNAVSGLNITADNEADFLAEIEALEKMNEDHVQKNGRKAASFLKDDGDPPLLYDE

PIKFYVE = PIKFYVE (Homo sapiens, UniProt Q9Y2I7); assay: biochemical; conditions: read-out: %Ctrl @ 2000nM
EPHA8 = EPHA8 (Homo sapiens, UniProt P29322); assay: biochemical; conditions: read-out: %Ctrl @ 2000nM
Sequence of EPHA8 (P29322 28-1005): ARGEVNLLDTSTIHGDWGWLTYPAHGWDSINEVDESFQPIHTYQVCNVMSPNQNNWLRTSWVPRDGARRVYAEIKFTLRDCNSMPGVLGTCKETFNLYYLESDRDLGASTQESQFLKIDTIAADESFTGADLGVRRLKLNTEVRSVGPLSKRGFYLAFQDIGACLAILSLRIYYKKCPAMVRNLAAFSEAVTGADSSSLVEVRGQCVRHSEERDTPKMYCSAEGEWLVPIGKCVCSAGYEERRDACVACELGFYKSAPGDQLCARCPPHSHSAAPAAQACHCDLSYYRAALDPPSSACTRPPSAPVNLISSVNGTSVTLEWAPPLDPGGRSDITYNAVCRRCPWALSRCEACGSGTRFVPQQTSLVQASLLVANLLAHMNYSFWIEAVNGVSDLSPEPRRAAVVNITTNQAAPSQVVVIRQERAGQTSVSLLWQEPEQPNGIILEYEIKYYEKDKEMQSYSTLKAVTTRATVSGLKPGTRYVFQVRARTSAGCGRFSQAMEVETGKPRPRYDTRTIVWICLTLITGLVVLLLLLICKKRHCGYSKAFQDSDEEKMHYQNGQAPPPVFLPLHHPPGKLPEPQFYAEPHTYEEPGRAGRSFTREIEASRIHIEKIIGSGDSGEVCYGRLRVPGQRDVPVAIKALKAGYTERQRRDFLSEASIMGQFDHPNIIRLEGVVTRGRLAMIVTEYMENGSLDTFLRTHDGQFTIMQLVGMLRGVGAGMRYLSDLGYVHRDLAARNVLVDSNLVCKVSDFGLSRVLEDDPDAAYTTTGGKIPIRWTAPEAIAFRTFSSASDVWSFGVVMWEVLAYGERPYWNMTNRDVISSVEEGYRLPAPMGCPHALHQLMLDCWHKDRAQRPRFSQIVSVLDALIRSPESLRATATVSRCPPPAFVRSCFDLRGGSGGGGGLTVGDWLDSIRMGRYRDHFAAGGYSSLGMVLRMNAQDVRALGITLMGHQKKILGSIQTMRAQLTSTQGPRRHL

[3] = target: ABL1(F317L)-nonphosphorylated (Homo sapiens, UniProt P00519, F317L); assay: biochemical; conditions: read-out: %Ctrl @ 2000nM
CDKL1 = CDKL1 (Homo sapiens, UniProt Q00532); assay: biochemical; conditions: read-out: %Ctrl @ 2000nM
CLK2 = CLK2 (Homo sapiens, UniProt P49760); assay: biochemical; conditions: read-out: %Ctrl @ 2000nM
STK36 = STK36 (Homo sapiens, UniProt Q9NRP7); assay: biochemical; conditions: read-out: %Ctrl @ 2000nM
TRKB = TRKB (Homo sapiens, UniProt Q16620); assay: biochemical; conditions: read-out: %Ctrl @ 2000nM
CDC2L5 = CDC2L5 (Homo sapiens, UniProt Q14004); assay: biochemical; conditions: read-out: %Ctrl @ 2000nM
SBK1 = SBK1 (Homo sapiens, UniProt Q52WX2); assay: biochemical; conditions: read-out: %Ctrl @ 2000nM
MAP4K5 = MAP4K5 (Homo sapiens, UniProt Q9Y4K4); assay: biochemical; conditions: read-out: %Ctrl @ 2000nM
[4] = target: RSK3(Kin.Dom.2-C-terminal) (Homo sapiens, UniProt Q15349); assay: biochemical; conditions: read-out: %Ctrl @ 2000nM
AURKB = AURKB (Homo sapiens, UniProt Q96GD4); assay: biochemical; conditions: read-out: %Ctrl @ 2000nM
BRK = BRK (Homo sapiens, UniProt Q13882); assay: biochemical; conditions: read-out: %Ctrl @ 2000nM
CHEK2 = CHEK2 (Homo sapiens, UniProt O96017); assay: biochemical; conditions: read-out: %Ctrl @ 2000nM
[5] = target: RPS6KA5(Kin.Dom.1-N-terminal) (Homo sapiens, UniProt O75582); assay: biochemical; conditions: read-out: %Ctrl @ 2000nM
[6] = target: RSK1(Kin.Dom.2-C-terminal) (Homo sapiens, UniProt Q15418); assay: biochemical; conditions: read-out: %Ctrl @ 2000nM
Sequence of RSK1(Kin.Dom.2-C-terminal) (Q15418 392-735 limits assumed): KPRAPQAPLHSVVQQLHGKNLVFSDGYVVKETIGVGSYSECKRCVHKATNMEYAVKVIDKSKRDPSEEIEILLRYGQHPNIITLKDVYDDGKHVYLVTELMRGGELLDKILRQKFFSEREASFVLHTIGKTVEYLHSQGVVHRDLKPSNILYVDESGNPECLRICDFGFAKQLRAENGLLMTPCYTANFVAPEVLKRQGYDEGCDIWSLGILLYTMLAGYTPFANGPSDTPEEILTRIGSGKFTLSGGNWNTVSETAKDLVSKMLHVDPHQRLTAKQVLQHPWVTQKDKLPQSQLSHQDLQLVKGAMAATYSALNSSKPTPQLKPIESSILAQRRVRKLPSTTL

FGFR4 = FGFR4 (Homo sapiens, UniProt P22455); assay: biochemical; conditions: read-out: %Ctrl @ 2000nM
TAOK2 = TAOK2 (Homo sapiens, UniProt Q9UL54); assay: biochemical; conditions: read-out: %Ctrl @ 2000nM
DRAK1 = DRAK1 (Homo sapiens, UniProt Q9UEE5); assay: biochemical; conditions: read-out: %Ctrl @ 2000nM

Sequence of PLK3 (Q9H4B4 whole entry): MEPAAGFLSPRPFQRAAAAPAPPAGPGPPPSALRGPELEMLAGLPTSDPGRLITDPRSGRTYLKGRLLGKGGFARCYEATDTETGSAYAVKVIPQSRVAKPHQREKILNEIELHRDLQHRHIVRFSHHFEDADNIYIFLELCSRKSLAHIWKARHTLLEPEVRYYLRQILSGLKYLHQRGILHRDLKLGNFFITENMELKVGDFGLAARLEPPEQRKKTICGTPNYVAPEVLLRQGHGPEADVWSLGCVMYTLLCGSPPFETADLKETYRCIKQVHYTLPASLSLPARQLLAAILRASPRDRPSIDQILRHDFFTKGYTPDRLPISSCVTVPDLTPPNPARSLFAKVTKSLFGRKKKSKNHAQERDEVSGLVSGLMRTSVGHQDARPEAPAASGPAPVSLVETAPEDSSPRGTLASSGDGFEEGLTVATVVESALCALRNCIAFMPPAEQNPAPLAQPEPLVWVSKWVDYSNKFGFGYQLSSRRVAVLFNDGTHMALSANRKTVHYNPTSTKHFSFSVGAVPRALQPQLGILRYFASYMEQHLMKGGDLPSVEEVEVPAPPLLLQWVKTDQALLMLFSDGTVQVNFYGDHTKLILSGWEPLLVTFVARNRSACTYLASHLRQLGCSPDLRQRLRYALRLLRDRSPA

With `CC(C)COC(=O)c1[nH]c2ccc(F)cc2c1-c1cn(CC2CCN(CCNS(=O)(=O)c3ccc(CC(C)C)cc3)CC2)nn1` [AB668, isobutyl 5-fluoro-3-(1-((1-(2-((4-isobutylphenyl)sulfonamido)ethyl)piperidin-4-yl)methyl)-1H-1,2,3-triazol-4-yl)-1H-indole-2-carboxylate] the “phosphorylation of S129AKT” value (AKT (S129)) was “decreased, in a dose-dependent manner”, the remaining activity at 2 µM (ERK2) was 100% and the remaining activity at 2 µM (PLK3) was 93%. The remaining activity at 2 µM [1] was 86%, the “CK2 inhibition 8 h after inhibitor removal” value (CK2 in 786-O cells) was “persisted” and the remaining activity at 2 µM (DMPK) was 90%. For the same compound, the remaining activity at 2 µM (MAST1) was 100%, the remaining activity at 2 µM (ROCK1) was 88% and the remaining activity at 2 µM [2] was 88%. The remaining activity at 2 µM (CDK11) was 76%, the remaining activity at 2 µM (CSNK2A2 (CK2α′); read-out: %Ctrl @ 2000nM) was 19% and the inhibition at 2 µM (CSNK2A2 (CK2α′); read-out: inhibition (KINOMEscan profiling)) was 81%. For the same compound, the p21 phosphorylation (p21 (T145)) was “weakly affected”, the remaining activity at 2 µM (CSNK1G3) was 67% and the remaining activity at 2 µM (GRK1) was 80%. The remaining activity at 2 µM (PIP5K1C) was 87%, the remaining activity at 2 µM (CDK9) was 93% and the remaining activity at 2 µM (SRPK2) was 98%. It also gave a remaining activity at 2 µM (DLK) of 83%, a remaining activity at 2 µM (HIPK2) of 100% and a remaining activity at 2 µM (PIK3CB) of 90%. For the same compound, the remaining activity at 2 µM (LYN) was 88%, the remaining activity at 2 µM (RIOK3) was 97% and the remaining activity at 2 µM (PIKFYVE) was 1.7%. For the same compound, the remaining activity at 2 µM (EPHA8) was 92%, the remaining activity at 2 µM [3] was 88% and the “%Ctrl @ 2000nM” value (FLT3(ITD)) was 93%. For the same compound, the remaining activity at 2 µM (CDKL1) was 86%, the remaining activity at 2 µM (CLK2) was 98% and the remaining activity at 2 µM (STK36) was 100%. It also gave a remaining activity at 2 µM (TRKB) of 87%, a remaining activity at 2 µM (CDC2L5) of 98% and a remaining activity at 2 µM (SBK1) of 88%. The remaining activity at 2 µM (MAP4K5) was 96%, the “Number of Hits S(1)” value (468 kinases) was 2 and the “Number of Hits S(10)” value (468 kinases) was 3. For the same compound, the “Number of Hits S(35)” value (468 kinases) was 4, the remaining activity at 2 µM [4] was 85% and the remaining activity at 2 µM (AURKB) was 99%. It also gave a remaining activity at 2 µM (BRK) of 72%, a remaining activity at 2 µM (CHEK2) of 100% and a remaining activity at 2 µM [5] of 95%. It also gave a remaining activity at 2 µM [6] of 100%, a remaining activity at 2 µM (FGFR4) of 82% and a remaining activity at 2 µM (TAOK2) of 100%. It also gave a remaining activity at 2 µM (DRAK1) of 100%.
